Earlier results in patent US20210215697A1, “Serum Biomarkers” (BerGenBio ASA, priority 2018, published 2021).

What was measured:
[1] = test system: Mv4-11 cell line
[2] = test system: OCI-AML5 cells; details: Ben-Batalla et al, 2013
[3] = test system: OCI-M1 cell line
[4] = test system: MOLM13 cell line
[5] = test system: Kasumi cell line

| IC50 to Axl inhibitors (in words) ([1]; Mv4-11, Ben-Batalla et al, 2013) | IC50 to Axl inhibitors (in words) [2] | IC50 to Axl inhibitors (in words) ([3]; OCI-M1, Ben-Batalla et al, 2013) | IC50 to Axl inhibitors (in words) ([4]; MOLM13, Ben-Batalla et al, 2013) | IC50 to Axl inhibitors (in words) ([5]; Ben-Batalla et al, 2013) | IC50 ([1]; Mv4-11, "responder" AML cell line) [nM] | IC50 ([3]; OCI-M1, "non-responder" AML cell line) [nM] | IC50 ([4]; MOLM13, "responder" AML cell line) [nM] | IC50 ([5]; "non-responder" AML cell line) [nM] | SMILES |
| --- | --- | --- | --- | --- | --- | --- | --- | --- | --- |
| low | high | high | low | high |  |  |  |  | Nc1nc(Nc2ccc3c(c2)CC[C@@H](N2CCCC2)CC3)nn1-c1cc2c(nn1)-c1ccccc1CCC2 [BGB324, 1-(6,7-dihydro-5H-benzo[6,7]cyclohepta[1,2-c]pyridazin-3-yl)-N3-((7-(S)-pyrrolidin-1-yl)-6,7,8,9-tetrahydro-5H-benzo[7]annulene-2-yl)-1H-1,2,4-triazole-3,5-diamine] |
|  |  |  |  |  | 140 | 1800 | 450 | 1200 | Nc1nc(Nc2ccc3c(c2)CC[C@@H](N2CCCC2)CC3)nn1-c1cc2c(nn1)-c1ccccc1CCC2 [BGB324/R428/bemcentinib, bemcentinib] |
